From ChEMBL document CHEMBL1151820, “Antagonists of the P2X(7) receptor. From lead identification to drug development” (J Med Chem, 2009) come the findings set out here.

Some results are limits rather than exact numbers.

The nature of series [1]: Metabolic stability in rat hepatocytes assessed as intrinsic clearance assessed per million cells. Type of series: ADME, cell-based, Liver, Hepatocyte.
Series [2] in a line: Plasma clearance in rat. Type of series: ADME, organism-based.
A short description of series [3]: Volume of distribution at steady state in rat. To be noted: in vivo, read-out: Vdss. Type of series: ADME, organism-based.
Series [4] is described as follows: Half life in rat. Type of series: ADME, organism-based. The following applies: in vivo.
The target in series [5] is T1, P2X purinoceptor 7 (Homo sapiens) (UniProt Q99572).
T1 sequence (whole entry): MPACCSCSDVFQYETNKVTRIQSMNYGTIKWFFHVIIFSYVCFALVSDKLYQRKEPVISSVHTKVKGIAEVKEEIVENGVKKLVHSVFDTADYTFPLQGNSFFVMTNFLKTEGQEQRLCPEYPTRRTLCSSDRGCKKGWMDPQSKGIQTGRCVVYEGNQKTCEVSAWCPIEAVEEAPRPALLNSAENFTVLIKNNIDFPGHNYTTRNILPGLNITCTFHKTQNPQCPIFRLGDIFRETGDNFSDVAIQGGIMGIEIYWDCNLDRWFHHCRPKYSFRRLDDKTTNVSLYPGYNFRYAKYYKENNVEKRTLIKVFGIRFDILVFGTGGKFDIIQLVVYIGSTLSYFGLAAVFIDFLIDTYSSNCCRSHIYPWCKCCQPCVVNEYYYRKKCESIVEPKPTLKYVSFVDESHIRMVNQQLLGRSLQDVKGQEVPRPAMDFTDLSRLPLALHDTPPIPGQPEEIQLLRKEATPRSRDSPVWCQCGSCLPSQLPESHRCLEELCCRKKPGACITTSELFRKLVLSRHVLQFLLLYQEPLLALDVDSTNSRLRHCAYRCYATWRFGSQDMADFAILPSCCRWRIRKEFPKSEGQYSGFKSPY
In words: Inhibition of human P2X7 receptor in human PBMC assessed as inhibition of BzATP-induced IL1-beta release at 0.03 uM.

The nature of series [6]: Metabolic stability in human liver microsomes assessed as half life. Type of series: ADME, Microsome.
Series [7] in a line: Oral bioavailability in rat. Type of series: ADME, organism-based. The following applies: in vivo.
In series [8] the target is T1, P2X purinoceptor 7 (Homo sapiens). In words: Inhibition of human P2X7 receptor in human PBMC assessed as inhibition of BzATP-induced IL1-beta release at 0.3 uM.
In series [9] the target is T2, P2X purinoceptor 7 (Homo sapiens, UniProt Q99572).
T2 sequence (Q99572 whole entry): T1 sequence (whole entry)
In words: Antagonist activity at human P2X7 receptor expressed in HEK293 cells assessed as inhibition of BzATP-induced calcium influx. The series is classed as functional, cell-based.

In series [10] the target is T2, P2X purinoceptor 7. In words: Antagonist activity at P2X7 receptor in human lymphocytes assessed as inhibition of ATP-induced Ba2+ influx. Type of series: functional, cell-based.
The target in series [11] is T1, P2X purinoceptor 7 (Homo sapiens). The following applies: HEK293, at 3 µM.
Series [12] concerns the target T2, P2X purinoceptor 7. In words: Antagonist activity at P2X7 receptor in human THP1 cells assessed as inhibition of BzATP-induced ethidium uptake. The series is classed as functional, cell-based, THP-1.
The target of series [13] is T2, P2X purinoceptor 7. The series can be described thus: Antagonist activity at P2X7 receptor in human THP1 cells assessed as effect on BzATP-induced Yo-Pro uptake. The series is classed as functional, cell-based, THP-1.
The target of series [14] is T3, P2X purinoceptor 7 (Rattus norvegicus, UniProt Q64663).
T3 sequence (Q64663 whole entry): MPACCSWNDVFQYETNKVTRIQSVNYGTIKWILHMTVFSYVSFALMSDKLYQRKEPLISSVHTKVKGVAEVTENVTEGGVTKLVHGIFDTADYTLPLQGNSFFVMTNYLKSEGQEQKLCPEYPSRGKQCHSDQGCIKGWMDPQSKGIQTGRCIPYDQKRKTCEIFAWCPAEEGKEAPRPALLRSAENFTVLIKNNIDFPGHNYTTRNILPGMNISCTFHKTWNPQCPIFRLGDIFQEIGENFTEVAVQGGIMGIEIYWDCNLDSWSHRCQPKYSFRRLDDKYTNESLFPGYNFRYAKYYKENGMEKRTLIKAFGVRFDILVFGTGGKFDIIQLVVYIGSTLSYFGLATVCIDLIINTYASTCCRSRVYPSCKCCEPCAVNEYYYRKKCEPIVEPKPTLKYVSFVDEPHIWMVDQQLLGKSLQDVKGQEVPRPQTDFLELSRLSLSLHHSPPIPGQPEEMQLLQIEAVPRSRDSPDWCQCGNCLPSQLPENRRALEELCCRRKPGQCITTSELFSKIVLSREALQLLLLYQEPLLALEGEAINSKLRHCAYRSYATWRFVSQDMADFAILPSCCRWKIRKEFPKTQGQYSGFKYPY
In words: Activity at rat P2X7 receptor expressed in HEK cells assessed as effect on BzATP-induced ethidium uptake. Type of series: cell-based, HEK293.

Series [15] can be described thus: Bioavailability in rat. Type of series: ADME, organism-based. The following applies: in vivo.
Another series concerns Mus musculus. In words: In vivo receptor activity at P2X7 receptor in mouse model assessed as ATP-induced IL1-beta release. The series is classed as functional.
A short description of series [16]: Plasma clearance in iv dosed rat. Type of series: ADME, organism-based.
Series [17] can be described thus: Volume of distribution at steady state in iv dosed rat. The series is classed as ADME, organism-based. The following applies: in vivo, read-out: Vdss.
The nature of series [18]: Half life in iv dosed rat. Type of series: ADME, organism-based. To be noted: in vivo.
Series [19] has as its system Rattus norvegicus. In words: Analgesic activity in po dosed rat model of joint pain assessed as inhibition of FCA-induced weight bearing capacity administered twice daily for 5 days. The series is classed as functional. The following applies: 120 h.
Series [20] concerns Rattus norvegicus. In words: Antiinflammatory activity in po dosed rat acute inflammatory pain model assessed as inhibition of FCA-induced weight bearing capacity. Type of series: functional.

On to `O=C(NCC12CC3CC(CC(C3)C1)C2)c1cc(Cl)ccc1Cl`, for which the hepatocyte CLint in [1] was more than 100 µL/min/1e6 cells. For the same molecule, the clearance in [2] worked out at 100 mL/min/kg. In series [3], the Vd turned out to be 3 L/kg. The molecule further gave a half-life in [4] of 0.5 h.

`O=C(NCC12CC3CC(CC(C3)C1)C2)c1ncnc2c1CCN(Cc1ccccc1)C2`: the inhibition in [5] worked out at 50%.

As for `Cc1ccc2c(=O)n([C@H](C)CO)ccc2c1NC(=O)Cc1ccc(C(F)(F)F)c(F)c1`, in [6], the half-life was 1.5 h. The bioavailability in series [7] turned out to be 25%.

In the case of `O=C(CC12CC3CC(CC(C3)C1)C2)Nc1ncnc2c1CCN(S(=O)(=O)c1ccc(F)cc1F)C2`, the inhibition in [8] is more than 75%.

Regarding `CN([C@@H](Cc1ccc(OS(=O)(=O)c2cccc3cnccc23)cc1)C(=O)N1CCN(c2ccccc2)CC1)S(=O)(=O)c1cccc2cnccc12`, the IC50 is 50.1 nM at P2X purinoceptor 7 [9] and 12.6 nM at P2X purinoceptor 7 [10]. This molecule came in with an inhibition in series [11] of 85%.

On to `CC(C)(C)OC(=O)NCC(=O)N1CCc2c(ncnc2NCC(O)C23CC4CC(CC(C4)C2)C3)C1` (stereo unspecified), for which, in series [8], the inhibition is more than 75%.

For the molecule `O=C(Cc1ccc(C(F)(F)F)c(F)c1)Nc1c(Cl)ccc2c(=O)n(CCO)ccc12`, on P2X purinoceptor 7 [12], the IC50 is 6.31 nM. Moreover, the half-life in [6] was 3.7 h. The molecule also displayed a bioavailability in series [7] of more than 75%.

For `O=C(NCC1(O)CCCCCC1)c1cc(-c2cc[nH]n2)ccc1Cl`, the IC50 at P2X purinoceptor 7 [13] was 200 nM.

Consider `O=C(NNc1cccc2ncccc12)C12CC3CC(CC(C3)C1)C2`, for which the IC50 is 10 nM at P2X purinoceptor 7 [12] and 39.8 nM at P2X purinoceptor 7 [14].

As to `O=C(NCCc1ccccc1Cl)c1cc(-n2ncc(=O)[nH]c2=O)ccc1Cl`, the IC50 at P2X purinoceptor 7 [12] is 316 nM. Besides, the clearance in [2] amounted to 9 mL/min/kg. In [3], the Vd came out at 0.3 L/kg. For the same molecule, the half-life in series [4] was 3 h. In addition, the bioavailability in [15] was found to be 44%. In addition, the ED50 in the series with Mus musculus is 20 mg/kg.

In the case of `C[C@H](CO)n1ccc2c(NC(=O)Cc3ccc(Cl)c(C(F)(F)F)c3)cccc2c1=O`, the IC50 on P2X purinoceptor 7 [12] was 1.26 nM. For the same molecule, in series [6], the half-life was 1 h. For the same molecule, in [7], the bioavailability is 25%.

For `O=C(CC12CC3CC(CC(C3)C1)C2)Nc1ccccc1`, the Kb on P2X purinoceptor 7 [12] (read-out: pA2 (converted)) is 39.8 nM. For the same molecule, in [1], the hepatocyte CLint amounted to 5 µL/min/1e6 cells. Also, in series [2], the clearance stood at 47 mL/min/kg. Further, the Vd in series [3] turned out to be 2 L/kg. Also, the half-life in [4] is 1 h.

On to `CN([C@@H](Cc1ccc(OS(=O)(=O)c2cccc3cnccc23)cc1)CN1CCN(c2ccccc2)CC1)S(=O)(=O)c1cccc2cnccc12`, for which, at P2X purinoceptor 7 [10], the IC50 was 15.8 nM.

In the case of `O=C(NCC12CC3CC(CC(C3)C1)C2)c1ccccc1Cl`, the hepatocyte CLint in [1] was more than 100 µL/min/1e6 cells.

As for `Cc1ccccc1Nc1ncnn1-c1cccc(Cl)c1Cl`, the IC50 was 20 nM at P2X purinoceptor 7 [12] and 251 nM on P2X purinoceptor 7 [14].

Molecule `Cc1ccccc1N=C(NC#N)N1CCN(C(=O)Nc2ccc(Cl)cc2)C(c2ccccc2)C1` (stereo unspecified) returned a clearance in [16] of 68 mL/min/kg. The Vd in [17] amounted to 5.3 L/kg. This molecule also had a half-life in series [18] of 0.9 h.

As to `Cc1cc(-c2ccc(Cl)c(C(=O)NCC3(O)CCCCCC3)c2)nn1CC(=O)NCCN(C)C`, the IC50 on P2X purinoceptor 7 [13] is 3.16 nM.

For the molecule `O=C(NCC1(O)CCCCCC1)c1cc(-n2ncc(=O)[nH]c2=O)ccc1Cl`, on P2X purinoceptor 7 [12], the IC50 was 100 nM. For the same molecule, the ED50 with Mus musculus is 2 mg/kg.

As to `CN1C(=O)CCC1C(=O)NCc1cccc(C(F)(F)F)c1Cl` (stereo unspecified), the ED50 with Rattus norvegicus [19] and in the series on Rattus norvegicus [20] was less than 20 mg/kg in each case.

In turn, `Cc1ccc2c(N/C(=N\C#N)N3CCN(C(=O)c4ccc(Cl)cc4)CC3C(C)C)cccc2n1` (stereo unspecified) came in with a clearance in [16] of 23 mL/min/kg. Also, the Vd in series [17] is 11.8 L/kg. For the same molecule, in series [18], the half-life is 4.4 h. Besides, in [7], the bioavailability was determined as 5%.

With `Clc1cccc(-n2cnnc2NCc2cccnc2N2CCCC2)c1Cl`, the IC50 on P2X purinoceptor 7 [12] is 15.8 nM; at P2X purinoceptor 7 [14] it was 12.6 nM.

On to `C=C1C2(C(=O)NNc3ccccc3)CCC(C2)C1(C)C` (stereo unspecified), for which the IC50 on P2X purinoceptor 7 [12] and at P2X purinoceptor 7 [14] was 50.1 nM each time.

Turning to `Cc1ccc(-c2ccc(Cl)c(C(=O)NCC3(O)CCCC(C)(C)C3)c2)nc1` (stereo unspecified), on P2X purinoceptor 7 [13], the IC50 is 10 nM.

Regarding `Clc1cccc(-n2ncnc2NCc2cccnc2N2CCCC2)c1Cl`, the IC50 at P2X purinoceptor 7 [14] was 25.1 nM.

With `CN1C(=O)CCC1C(=O)NCc1ccc(Cl)cc1Cl` (stereo unspecified), the ED50 in the series with Rattus norvegicus [19] and in the series with Rattus norvegicus [20] was less than 20 mg/kg throughout.
